Consider one molecule from paper PMC3567212 (Biochemistry, 2012).

Residue numbers refer to the chain shown, from its start.

Assay [1] addresses T1, Rhizobium etli pyruvate carboxylase (RePC) (Rhizobium etli, UniProt Q2K340).
T1 sequence (Q2K340 1-1154): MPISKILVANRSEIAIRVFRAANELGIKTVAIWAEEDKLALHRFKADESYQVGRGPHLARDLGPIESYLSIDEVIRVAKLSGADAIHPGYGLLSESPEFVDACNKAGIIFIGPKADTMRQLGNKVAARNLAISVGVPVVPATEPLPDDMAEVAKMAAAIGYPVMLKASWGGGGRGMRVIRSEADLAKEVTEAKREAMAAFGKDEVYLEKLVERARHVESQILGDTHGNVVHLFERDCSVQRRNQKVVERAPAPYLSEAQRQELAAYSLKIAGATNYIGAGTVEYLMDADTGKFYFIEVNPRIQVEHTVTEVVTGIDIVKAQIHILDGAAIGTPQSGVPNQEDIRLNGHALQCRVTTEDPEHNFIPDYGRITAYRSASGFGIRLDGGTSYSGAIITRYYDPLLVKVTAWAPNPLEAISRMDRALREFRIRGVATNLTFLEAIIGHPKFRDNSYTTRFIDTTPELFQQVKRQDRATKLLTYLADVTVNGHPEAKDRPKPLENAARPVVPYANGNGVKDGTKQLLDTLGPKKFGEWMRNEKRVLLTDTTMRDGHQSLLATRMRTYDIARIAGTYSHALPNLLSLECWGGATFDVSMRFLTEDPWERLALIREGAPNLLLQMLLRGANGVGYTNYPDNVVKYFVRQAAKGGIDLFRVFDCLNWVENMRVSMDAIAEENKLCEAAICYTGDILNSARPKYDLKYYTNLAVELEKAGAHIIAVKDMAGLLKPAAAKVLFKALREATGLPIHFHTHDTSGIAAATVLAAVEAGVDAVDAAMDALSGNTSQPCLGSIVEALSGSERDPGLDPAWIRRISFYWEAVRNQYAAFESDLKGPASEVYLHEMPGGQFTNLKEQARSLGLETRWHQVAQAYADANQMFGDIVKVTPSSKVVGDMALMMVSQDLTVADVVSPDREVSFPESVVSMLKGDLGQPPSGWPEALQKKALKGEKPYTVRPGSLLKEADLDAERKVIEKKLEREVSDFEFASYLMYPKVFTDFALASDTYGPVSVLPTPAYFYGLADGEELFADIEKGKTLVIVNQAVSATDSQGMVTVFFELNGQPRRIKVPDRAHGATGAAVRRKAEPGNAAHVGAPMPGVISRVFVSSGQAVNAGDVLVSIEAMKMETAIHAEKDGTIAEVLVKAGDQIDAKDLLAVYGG
Description: coupled spectrophotometric assay. In kind it is biochemical.

Assay [2] deals with T2, Rhizobium etli pyruvate carboxylase (RePC) (Rhizobium etli, UniProt Q2K340, R427K).
T2 sequence (Q2K340 1-1154 R427K): T1 sequence (Q2K340 1-1154) with R427K
Kind of assay: coupled spectrophotometric assay. Type of assay: biochemical.

On to `N[C@@H](CC(=O)O)C(=O)O` [L-aspartate], for which the Ki in assay [1] stood at 5 ± 0.6 mM; in assay [2], 4.5 ± 0.6 mM.
